Assay results reported in patent US20110182877A1, “SUSTAINED DELIVERY OF COMPSTATIN ANALOGS FROM GELS” (POTENTIA PHARMACEUTICALS, INC., priority 2007, published 2011).
Values joined by “and” are separate entries in the source; they are usually repeats but may differ in a detail not shown here. Equal entries are not always repeated. Each block holds one compound with its values, some of them ahead of it. Bridge positions count the residues as written; N and C are the ends. Square brackets hold non-standard residues; d marks the D form. Trp(5-F) = N[C@@H](Cc1c[nH]c2ccc(F)cc12)C(=O)O

Assays:
[1] = Intravitreal administration to non-human primates: deposit formation and compound content (Example 1); format: in vivo; settings: Cynomolgus monkey, IVT 150 μg/eye, from 4 hours to 2 weeks post administration
Protocol: Two different formulations were manufactured by dissolving the compound into water for injection at different concentrations: (i) 0.299 mg/mL, designated LD and (ii) 4.51 mg/mL, designated as HD and filter sterilizing through a Millipore Durapore 47 mm 0.22 μm filter. The liquid compositions were dispensed into individual vials (250 μl each). The pH of the LD composition was 5.48 while that of the HD composition was 6.0.
During studies involving intravitreal administration of the compstatin analog whose synthesis was described above (SEQ ID NO: 32) in water for injection to non-human primates it was observed that the compound has the ability to form gel-like, approximately spheroidal intravitreal deposits in the primate (Cynomolgus monkey) eye following intravitreal injection. […]
(§1) At necropsy, in the majority of male animals (10 of 12) that had been dosed with compound IVT at 150 μg/eye, gel-like spheroidal intravitreal deposits were observed upon dissection of the eye. These deposits were isolated and analyzed for the presence of the compound.
The deposits were analyzed for drug content, and drug content was observed and measured using HPLC.

[2] = Ocular safety examinations after intravitreal injection (Example 1); format: in vivo; settings: Cynomolgus monkey
Protocol: During studies involving intravitreal administration of the compstatin analog whose synthesis was described above (SEQ ID NO: 32) in water for injection to non-human primates it was observed that the compound has the ability to form gel-like, approximately spheroidal intravitreal deposits in the primate (Cynomolgus monkey) eye following intravitreal injection. […] The high dose consisted of the intravitreal (IVT) injection of an estimated dose of 150 μg of compound in a volume of 50 μL water for injection while the low dose consisted of an estimated dose of 3 μg of compound in a volume of 50 μL water for injection.
as §1

[3] = Indirect ophthalmoscope exam in dose-ranging study for vitreous deposits formation; format: in vivo, New Zealand White rabbits; set-up: key to Indirect Exam Vit.: 0: Clear, no deposits, bubbles, or haziness detectable; 1: Light haziness, no opaque deposits or vitreous opacity; 2: Moderate opacity or opaque bubble or deposit; 3: Pronounced vitreal opacity; 4: Opaque; key to Indirect Exam Retina: 0: Flat, no mars, blisters or blemishes; 1: Not flat; has wrinkles, bumps, or ripples; 2: Minor inflammation or bleeding; 3: Retinal detachment, moderate hemorrhage; 4: Destruction of retinal tissue (GA, CNV, retinal tear); settings: NZW rabbit; for Indirect Exam Retina / Indirect Exam Vit.: 27 hours after treatment
Protocol: The study examined the ability of compound in amounts ranging from 0 to 200 μg/eye (0, 25, 50, 75, 100, 125, 150,175, 200 μg) to form deposits in the eye following intravitreal injection (Table 2). Each concentration was injected into three eyes. Thirteen animals were used for dose-ranging. Five additional animals were used for histological analysis.
Injection Procedures: Intravitreal injections were administered using a 0.5 cc tuberculin syringe (with permanently attached 29 G ½ inch needle); 0.2 ml of compound solution was withdrawn from the vial. Excess liquid was expelled, so that the syringe contained only the necessary volume of liquid for a single injection (50 μl). The eye was kept open using an eye lid speculum. The needle was inserted in the supero-temporal quadrant, through an area 3.5-4.0 mm posterior to the limbus, avoiding the horizontal meridian and aiming toward the center of the eye. Only half (¼ inch) of the needle total length (½ inch) was inserted into the eye. The injection volume was delivered slowly to prevent a rapid increase in intraocular pressure. To ensure that all the solution is in the eye and to avoid push-back through the injection site, the needle was removed slowly.
Ophthalmic Examinations: All animals received an ophthalmic exam (indirect ophthalmoscope) by a practicing clinical ophthalmologist prior to sacrifice.

[4] = Histopathological analysis of eyes after intravitreal injection; format: in vivo, New Zealand White rabbits
Protocol: Histopathological Analysis: After examination, animals were euthanized and eyes were enucleated, fixed in Davidson's solution, sectioned and H/E stained. Sections from both eyes of animals receiving 25, 50, or 100 μg/eye of compound (Table 2, last three animals) were examined by an American Board of Pathology-certified pathologist, and peer-reviewed by a board-certified and recognized expert veterinary pathologist.
Five animals in this study were also processed for histopathological evaluation. The eyes were evaluated by two pathologists. […] The cornea, iris, ciliary body, lens, sclera, retina, and vitreous were all normal.

[5] = Further studies of deposits, serum and vitreous concentration after intravitreal injection (Example 3); format: in vivo, Cynomolgus monkeys
Protocol: In one study, Cynomolgus monkeys were administered 0, 150, 450, 1050, or 2100 μg of compound in 50 μl WFI by intravitreal injection.
Some of the animals that had been administered 0, 450, 1050, or 2100 μg were sacrificed, and compound concentration in serum and vitreous was measured 14 days following administration. Compound measurement was performed using HPLC. […] When administered at concentrations too low to form a deposit, the compound is cleared from the Cynomolgus vitreous with a T1/2 of about 22 hours. Therefore, it is evident that the compound measured in this experiment after 2 weeks must reflect release from the deposit rather than residual compound that was never present in the deposit.
The study was continued to evaluate behavior of the deposits over time. […] There was evidence that they were diminishing in size and/or density at the 6 month time point. […] The deposits could be observed both by ophthalmoscopic examination and ultrasound. They appeared to continue diminishing in size and/or split into multiple smaller deposits over time.
The deposits were undetectable using these techniques by approximately 1 week following dosing.

complement activation = settings: relative to compstatin amidated at the C-terminus; based on published data; cited from earlier work

Indirect Exam Retina ([3]; 25 μg/eye IVT in 50 μl): 0 | Indirect Exam Vit. ([3]; 25 μg/eye IVT in 50 μl): 1 | Indirect Exam Retina ([3]; 50 μg/eye IVT in 50 μl): 0 | Indirect Exam Vit. ([3]; 50 μg/eye IVT in 50 μl): 2 and 1 | Indirect Exam Retina ([3]; 75 μg/eye IVT in 50 μl): 0 | Indirect Exam Vit. ([3]; 75 μg/eye IVT in 50 μl): 1 and 2 | Indirect Exam Retina ([3]; 100 μg/eye IVT in 50 μl): 0 | Indirect Exam Vit. ([3]; 100 μg/eye IVT in 50 μl): 2 and 3 | Indirect Exam Retina ([3]; 125 μg/eye IVT in 50 μl): 0 | Indirect Exam Vit. ([3]; 125 μg/eye IVT in 50 μl): 1 | Indirect Exam Retina ([3]; 150 μg/eye IVT in 50 μl): 0 | Indirect Exam Vit. ([3]; 150 μg/eye IVT in 50 μl): 2 and 1 | Indirect Exam Retina ([3]; 175 μg/eye IVT in 50 μl): 2 and 0 | Indirect Exam Vit. ([3]; 175 μg/eye IVT in 50 μl): 2 and 1 and 4 | Indirect Exam Retina ([3]; 200 μg/eye IVT in 50 μl): 0 | Indirect Exam Vit. ([3]; 200 μg/eye IVT in 50 μl): 1 | Pathological changes on indirect ophthalmoscopic exam ([3]; IVT 25-200 μg/eye): did not reveal any pathological changes | Eyes with vitreous haze ([3]; IVT, did not correlate strongly with dose): 9 of the 32 | Histopathological evaluation of eyes ([4]; NZW rabbit, single-dose IVT 25, 50 and 100 μg/eye, two pathologists): all the evaluated eyes were normal | Serum concentration relative to vitreal concentration at the same dose ([5]; Cynomolgus monkeys, 14 days following IVT 450, 1050 or 2100 μg): approximately 100 fold lower | Duration of release from intravitreal deposits ([5]; Cynomolgus monkeys, IVT 450, 1050 or 2100 μg, serum and vitreous HPLC at 14 days): at least two weeks | half-life ([5]; cynomolgus monkey, other: intravitreal injection, Cynomolgus vitreous, concentrations too low to form a deposit, read-out: T1/2 of clearance from the vitreous (converted)): ~22 h
Compound: CC[C@H](C)[C@H](NC(C)=O)C(=O)N[C@H]1CSSC[C@@H](C(=O)N[C@H](C(N)=O)[C@@H](C)O)NC(=O)[C@H](CCCNC(=N)N)NC(=O)[C@H](Cc2cnc[nH]2)NC(=O)[C@H](C)NC(=O)CNC(=O)[C@H](Cc2c[nH]c3ccccc23)NC(=O)[C@H](CC(=O)O)NC(=O)[C@H](CCC(N)=O)NC(=O)[C@H](Cc2cn(C)c3ccccc23)NC(=O)[C@H](C(C)C)NC1=O [Ac-V4(1-MeW)/H9A, Ac-ICV(1-methyl-W)QDWGAHRCT-CONH2]
Compound in the vitreous [1]: presence of the compound at all time points examined | Adverse reactions caused by compound within the vitreous cavity ([2]; IVT 3 or 150 μg/eye): no evidence that the compound within the vitreous cavity caused any apparent adverse reactions | ERG values ([2]; IVT 3 or 150 μg/eye): within normal limits | Tonometry, intraocular pressure ([2]; IVT 3 or 150 μg/eye): no drug-related changes in intraocular pressure | Vitreal haze, binocular indirect ophthalmoscopy ([2]; day 2, IVT 3 μg/eye): diffuse vitreal haze in the right eye of one animal | Vitreal haze, binocular indirect ophthalmoscopy ([2]; day 2, IVT 150 μg/eye): four animals | Slit lamp examinations of the anterior segment of the eye ([2]; days 2 and 15 following IVT administration): no abnormalities | Histopathology of the eyes ([2]; with or without intravitreal deposits): no drug-related abnormalities were observed | Adverse effects attributable to the deposits ([4]; rabbit studies, histopathology and physical examination): No adverse effects attributable to the deposits were observed | Continued release based on serum samples ([5]; Cynomolgus monkey, IVT 450, 1050, 2100 μg, up to 1 year): continued release of compstatin analog occurred during this time | Adverse effects attributable to the deposits ([5]; monkey studies, histopathology and physical examination): No adverse effects attributable to the deposits were observed

Compound: Ac-ICV(5fW)QD(5fW)GAHRCT-CONH2 (Ac-ICV[Trp(5-F)]QD[Trp(5-F)]GAHRCT-NH2; disulfide 2-12) [Ac-V4(5fW)/W7(5fW)/H9A]
Activity over compstatin (complement activation): 161× more
